These results are taken from patent US7524851B2 (Robert Bosch Gesellschaft fur Medizinische Forschung (RBMF), priority 2003, dated 2009).

For this test, the system named is lamina propria lymphocytes. As to the kind of experiment: Apoptosis of anti-CD2/CD28 activated lamina propria lymphocytes in vitro. The test is classed as cell-based, human. The note with it: ulcerative colitis; 5 days. The source says: Isolation of primary CD4^+ T lymphocytes and lamina propria cells: Human peripheral blood mononuclear cells (PBMCs) from healthy volunteers (25-42 years of age) and patients with Crohn's disease (31-65 years of age) were isolated using Ficoll-Hypaque gradients. PBMCs were further purified using CD4 monoclonal antibodies attached to immunomagnetic beads according to the manufacturer's protocol, followed by treatment with Detachabead (Dynal; Oslo, Norway). In some cases, CD4^+ T cells were further separated by negative selection techniques using CD45RO or CD45RA monoclonal antibodies (PharMingen; Heidelberg, Germany) and immunomagnetic beads (Dynal). […]
For FACS analysis, apoptotic cells were detected by staining with annexin V and propidium iodide using the Annexin V FITC Apoptosis Detection Kit I (PharMingen) (Atreya et al., Nat. Med. 6:583-588 (2000)). […] To verify the results obtained with the annexin V/propidium iodide staining, analysis of T cells displaying DNA fragmentation was also determined by the Nicoletti technique, as described in (Nicoletti et al., J. Immunol. Methods 139:271-279 (1991)). […] Finally, cells were analyzed on a FACScan flow cytometer. […]

Regarding `Sc1ncnc2nc[nH]c12` [6-MP, 6-mercaptopurine], the “apoptosis in anti-CD2 plus anti-CD28 activated lamina propria lymphocytes” value is on record as “capable of inducing apoptosis”.
